Data: patent US6984403B2, “Azithromycin dosage forms with reduced side effects” (Pfizer Inc., priority 2003, dated 2006)
Converted amounts (≈) assume the structure as drawn. Like-named read-outs stand apart in the source and are kept apart here.

Assays:
[1] = Azithromycin solubility as a function of pH; format: physicochemical
Procedure: The effective amount of alkaline agent that would suppress the dissolution of azithromycin in the stomach and thereby result in an improvement in the toleration of the immediate release (IR) formulation was calculated as follows. The IR formulation, without an alkalizing agent, releases about 92% of the drug in 30 minutes at pH 6.0 as described in Example 5, i.e., 3.07% per minute at pH 6.0. To improve the toleration, the azithromycin dissolution rate must be reduced, preferably to a rate that will release only about 1.5 gA, or less, in the first 30 minutes or no greater than 2.5% per minute. It was assumed that the rate of drug dissolution from an IR formulation is directly proportional to the solubility of azithromycin, which is dependent on the pH as shown in Table 10.

[2] = 3,995 human patients, all dose levels combined, cited from earlier work
[3] = cited from earlier work
[4] = taken simultaneously with antacids; cited from earlier work
[5] = adult humans, single 1 gram dose, oral suspension
[6] = adult humans, single 2 gram, oral suspension
[7] = pediatric humans, oral suspension 10 mg/kg on Day 1 and 5 mg/kg on days 2–5
[8] = pediatric humans, single 30 mg/kg dose, oral suspension

solubility ([1]; aqueous buffer, pH 6.0, obtained by interpolation from Table 10, read-out: azithromycin solubility at pH 6.0): 390 mg/mL (≈ 521 mM)
solubility ([1]; pH 2.88, aqueous buffer, read-out: Azithromycin Solubility): 440 mg/mL (≈ 587 mM)
solubility ([1]; pH 4.09, aqueous buffer, read-out: Azithromycin Solubility): 430 mg/mL (≈ 574 mM)
solubility ([1]; pH 6.15, aqueous buffer, read-out: Azithromycin Solubility): 380 mg/mL (≈ 507 mM)
solubility ([1]; pH 6.42, aqueous buffer, read-out: Azithromycin Solubility): 310 mg/mL (≈ 414 mM)
solubility ([1]; pH 6.61, aqueous buffer, read-out: Azithromycin Solubility): 250 mg/mL (≈ 334 mM)
solubility ([1]; pH 6.65, aqueous buffer, read-out: Azithromycin Solubility): 140 mg/mL (≈ 187 mM)
solubility ([1]; pH 6.75, aqueous buffer, read-out: Azithromycin Solubility): 120 mg/mL (≈ 160 mM)
solubility ([1]; pH 6.87, aqueous buffer, read-out: Azithromycin Solubility): 36 mg/mL (≈ 48.1 mM)
solubility ([1]; pH 7.41, aqueous buffer, read-out: Azithromycin Solubility): 5 mg/mL (≈ 6.68 mM)
solubility ([1]; pH 8.02, aqueous buffer, read-out: Azithromycin Solubility): 0.5 mg/mL (≈ 0.668 mM)
solubility ([1]; pH 8.85, aqueous buffer, read-out: Azithromycin Solubility): 0.02 mg/mL (≈ 0.0267 mM)
solubility ([1]; pH 10.34, aqueous buffer, read-out: Azithromycin Solubility): 0.005 mg/mL (≈ 0.00668 mM)
SMILES: CC[C@H]1OC(=O)[C@H](C)[C@@H](O[C@H]2C[C@@](C)(OC)[C@@H](O)[C@H](C)O2)[C@H](C)[C@@H](O[C@@H]2O[C@H](C)C[C@H](N(C)C)[C@H]2O)[C@](C)(O)C[C@@H](C)CN(C)[C@H](C)[C@@H](O)[C@]1(C)O [Azithromycin, azithromycin]
patients reporting GI side effects ([2]; oral): 9.6%
frequency of abdominal pain [2]: 2.5%
frequency of diarrhea [2]: 3.6%
frequency of nausea [2]: 2.6%
reported incidence of abdominal pain [3, 5]: 5%
reported incidence of diarrhea/loose stools [3, 5]: 7%
reported incidence of nausea [3, 5]: 5%
reported incidence of vomiting [3, 5]: 2%
reported incidence of abdominal pain [3, 6]: 7%
reported incidence of diarrhea/loose stools [3, 6]: 14%
reported incidence of vomiting [3, 6]: 7%
reported incidence of abdominal pain [3, 7]: 2%
reported incidence of diarrhea/loose stools [3, 7]: 4%
reported incidence of vomiting [3, 7]: 2%
reported incidence of diarrhea/loose stools [3, 8]: 6.4%
reported incidence of nausea [3, 8]: 1.7%
reported incidence of vomiting [3, 8]: 4%
reduction of azithromycin maximum serum concentration Cmax by antacids [4]: 24%
